Data from US10952992B2, “Methods of treating intraocular pressure with activators of Tie-2” (Aerpio Pharmaceuticals, Inc., priority 2015, dated 2021).
Where “and” joins values, the source holds several entries; their conditions need not be identical. Equal values may be shown once.

Key:
[1] = Example 2 aqueous humor concentrations; assay type: in vivo, male New Zealand White rabbits; conditions: for Average Peak Concentration, Aqueous Humor: suspension
Description: (§1) To measure the concentration of Compound 1 in plasma and ocular tissues following topical ocular, subcutaneous, and intravitreal administration, New Zealand White rabbits were administered Compound 1, and plasma and ocular samples were collected at pre-determined time points. Compound 1 formulations were prepared fresh on each day of dosing.
(§2) Ocular tissue samples from both eyes of each animal were collected and weights were recorded. Plasma and ocular tissue sample concentrations of Compound 1 were determined by LC-MS/MS.
(§3) Animals were anesthetized for ocular (topical) and intravitreal dosing following the 12IA7 IACUC protocol. Each rabbit received a bolus dose of test formulation either via topical ocular administration 3 times daily on Days 1 and 2 (at 0, 6, and 12 hours), and once on Day 3 (at 0 hours) into both eyes; via intravitreal administration into both eyes once on Day 1 (at 0 hours); or via subcutaneous administration 2 times daily on Days 1 and 2 (at 0 and 8 hours) and once daily on Day 3 (at 0 hours). Doses were given within an approximately 1 hour window each day where applicable.
(§4) On Day 1, for intravitreal administration, or on Day 3, for topical ocular and subcutaneous administration, at the appropriate ocular tissue collection time points, animals were euthanized and both eyes were enucleated immediately. Following enucleation, each eye was rinsed with phosphate-buffered saline. Ocular tissue samples from both eyes of each animal were collected at predetermined time points and weights were recorded. All the samples were frozen immediately on dry ice, and stored at −60° C. to −80° C. pending bioanalysis.
(§5) An LC-MS/MS method was developed for the determination of Compound 1 in rabbit aqueous tissues (plasma, aqueous and vitreous humor) and solid ocular tissue samples. A pre-study standard curve was analyzed to determine the specificity, range, and lower limit of quantitation of the method. Plasma and tissue homogenate study samples were extracted and analyzed. All the samples were treated identically to the standards.
(§6) One eight-point standard curve was used in each analytical batch. To be accepted, each batch must have had at least five of eight standards with accuracy within ±20% of nominal, except at the lower limit of quantification (LLOQ), where ±25% was acceptable.

[2] = Example 2 iris, retina, choroid and cornea tissue concentrations; assay type: in vivo, male New Zealand White rabbits; conditions: for Average / Conc. (ng/g) OS / Conc. (ng/mL) OS / Conc. (ng/mL) OD / Conc. (ng/g) OD: subcutaneous 5 mg/kg/dose (Group 3), free acid; for Average Peak Concentration, Choroid / Average Peak Concentration, Cornea / Average Peak Concentration, Iris / Average Peak Concentration, Retina: suspension
Description: as §1, §2, §3, §4, §5, §6

[3] = Group 3 (subcutaneous 5 mg/kg/dose, suspension), 2.0 hr
[4] = Group 3 (subcutaneous 5 mg/kg/dose, suspension), 4.0 hr
[5] = Group 3: subcutaneous 5 mg/kg/dose
[6] = Group 5 (intravitreal 2.5 mg/eye, suspension), 6.0 hr
[7] = Group 5 (intravitreal 2.5 mg/eye, suspension), 24 hr
[8] = Group 5 (intravitreal 2.5 mg/eye, suspension), 72 hr
[9] = Group 5: intravitreal 1.54 mg/kg/dose
[10] = Choroid, 1 hr, listed as Compound 1 (free acid)

## COC(=O)N[C@@H](Cc1ccccc1)C(=O)N[C@@H](Cc1ccc(NS(=O)(=O)O)cc1)c1csc(-c2cccs2)n1 [Compound 1 free acid]
[1]; Group 3 (subcutaneous 5 mg/kg/dose, suspension), 0.5 hr
  aqueous humor Average Conc.: 1.21 ng/g
[1]; Group 3 (subcutaneous 5 mg/kg/dose, suspension), 1.0 hr
  aqueous humor Average Conc.: 0.41 ng/g
[1]; [3]
  aqueous humor Average Conc.: 0.66 ng/g
  aqueous humor Conc. OD: 0.601 ng/mL
[1]; [4]
  aqueous humor Average Conc.: 0.51 ng/g
  aqueous humor Conc. OS: 0.229 ng/mL
[1]; [5]
  Average Peak Concentration, Aqueous Humor: 1.21 ng/g
[1]; [6]
  aqueous humor Average Conc.: 26400 ng/g
  aqueous humor Conc. OD: 34200 ng/mL and 23400 ng/mL
[1]; [7]
  aqueous humor Average Conc.: 4270 ng/g
  aqueous humor Conc. OD: 3890 ng/mL and 5540 ng/mL
[1]; Group 5 (intravitreal 2.5 mg/eye, suspension), 48 hr
  aqueous humor Average Conc.: 915 ng/g
[1]; [8]
  aqueous humor Average Conc.: 120 ng/g
  aqueous humor Conc. OD: 145 ng/mL and 94.1 ng/mL
[1]; [9]
  Average Peak Concentration, Aqueous Humor: 26400 ng/g
[2]; Choroid, 0.5 hr
  Average: 127 ng/g
  Conc. (ng/g) OS: 83.1 ng/g and 154 ng/g
  Conc. (ng/mL) OS: 7.55 ng/mL and 14.0 ng/mL
[2]; Choroid, 1 hr
  Average: 83.3 ng/g
  Conc. (ng/mL) OD: 8.65 ng/mL
[2]; [10]
  Conc. (ng/g) OD: 66.4 ng/g and 95.2 ng/g
  Conc. (ng/g) OS: 88.1 ng/g and 83.6 ng/g
  Conc. (ng/mL) OD: 6.04 ng/mL
  Conc. (ng/mL) OS: 8.01 ng/mL and 7.60 ng/mL
[2]; Choroid, 2 hr
  Average: 47.7 ng/g
  Conc. (ng/g) OD: 36.5 ng/g and 46.9 ng/g
  Conc. (ng/g) OS: 53.2 ng/g and 54.3 ng/g
  Conc. (ng/mL) OD: 3.32 ng/mL and 4.26 ng/mL
  Conc. (ng/mL) OS: 4.84 ng/mL and 4.94 ng/mL
[2]; Choroid, 4 hr
  Average: 61.0 ng/g
  Conc. (ng/g) OD: 53.0 ng/g and 51.2 ng/g
  Conc. (ng/mL) OD: 4.82 ng/mL and 4.65 ng/mL
[2]; Cornea, 0.5 hr
  Average: 7.96 ng/g
  Conc. (ng/g) OD: 6.05 ng/g
  Conc. (ng/g) OS: 9.87 ng/g
[2]; Cornea, 1 hr
  Average: 12.2 ng/g
  Conc. (ng/g) OD: 12.2 ng/g
  Conc. (ng/mL) OS: BLOQ
[2]; Cornea, 2 hr
  Average: 5.65 ng/g
  Conc. (ng/g) OD: 5.65 ng/g
  Conc. (ng/mL) OS: BLOQ
[2]; Cornea, 4 hr
  Average: 15.8 ng/g
  Conc. (ng/g) OD: 10.4 ng/g and 9.32 ng/g
  Conc. (ng/mL) OD: 0.942 ng/mL and 0.847 ng/mL
[2]; [5]
  Average Peak Concentration, Choroid: 127 ng/g
  Average Peak Concentration, Cornea: 7.96 ng/g
  Average Peak Concentration, Iris: 50.3 ng/g
  Average Peak Concentration, Retina: 38.7 ng/g
[2]; [9]
  Average Peak Concentration, Choroid: 663575 ng/g
  Average Peak Concentration, Cornea: 54560 ng/g
  Average Peak Concentration, Iris: 210650 ng/g
  Average Peak Concentration, Retina: 1988250 ng/g
[2]; Iris, 0.5 hr
  Average: 50.3 ng/g
  Conc. (ng/g) OS: 47.0 ng/g and 38.9 ng/g
  Conc. (ng/mL) OS: 4.27 ng/mL and 3.54 ng/mL
[2]; Iris, 1 hr
  Average: 58.0 ng/g
  Conc. (ng/g) OS: 47.6 ng/g and 34.3 ng/g
  Conc. (ng/mL) OS: 4.33 ng/mL and 3.12 ng/mL
[2]; Iris, 2 hr
  Average: 27.6 ng/g
  Conc. (ng/g) OD: 30.5 ng/g and 32.0 ng/g
  Conc. (ng/g) OS: 29.5 ng/g
  Conc. (ng/mL) OD: 2.77 ng/mL and 2.91 ng/mL
  Conc. (ng/mL) OS: 2.68 ng/mL and 1.67 ng/mL
[2]; Iris, 4 hr
  Average: 17.5 ng/g
  Conc. (ng/g) OD: 26.5 ng/g and 17.9 ng/g
  Conc. (ng/g) OS: 16.9 ng/g and 8.73 ng/g
  Conc. (ng/mL) OD: 2.41 ng/mL and 1.63 ng/mL
  Conc. (ng/mL) OS: 1.54 ng/mL and 0.794 ng/mL
[2]; Retina, 0.5 hr
  Average: 38.7 ng/g
[2]; Retina, 1 hr
  Average: 10.2 ng/g
  Conc. (ng/g) OD: 10.4 ng/g
  Conc. (ng/g) OS: 6.93 ng/g and 13.3 ng/g
  Conc. (ng/mL) OS: 0.63 ng/mL and 1.21 ng/mL
[2]; Retina, 2 hr
  Average: 10.5 ng/g
  Conc. (ng/g) OD: 6.31 ng/g
  Conc. (ng/g) OS: 6.93 ng/g
[2]; Retina, 4 hr
  Average: 35.3 ng/g
  Conc. (ng/mL) OD: BLOQ
[2]; choroid homogenate, 6.0 hr, left eye, individual animals, intravitreal 2.5 mg/eye (~1.54 mg/kg), group 5
  Choroid Conc. OS: 63400 ng/mL and 69700 ng/mL
[2]; choroid homogenate, 6.0 hr, right eye, individual animals, intravitreal 2.5 mg/eye (~1.54 mg/kg), group 5
  Choroid Conc. OD: 32800 ng/mL and 75400 ng/mL
